Experiments:
[1] = target: T1, ARAF^SSDD (ARAF^SSDD/MEK1) (Homo sapiens, UniProt P10398, G300S/Y301D/Y302D); assay: TR-FRET MEK phosphorylation assay, bell-shaped fit; assay type: biochemical
[2] = target: T1, ARAF^SSDD (ARAF^SSDD/MEK1); assay: biochemical
[3] = target: T2, CRAF^SSDD (CRAF^SSDD/MEK1) (Homo sapiens, UniProt P04049, Y340D/Y341D); assay: TR-FRET MEK phosphorylation assay, bell-shaped fit; assay type: biochemical
[4] = target: T2, CRAF^SSDD (CRAF^SSDD/MEK1); assay: biochemical
[5] = target: T3, CRAF monomer complex (CRAF/MEK1 SASA) (Homo sapiens, UniProt P04049); assay: TR-FRET MEK phosphorylation assay, bell-shaped fit; assay type: biochemical
T3 sequence (P04049 324-618): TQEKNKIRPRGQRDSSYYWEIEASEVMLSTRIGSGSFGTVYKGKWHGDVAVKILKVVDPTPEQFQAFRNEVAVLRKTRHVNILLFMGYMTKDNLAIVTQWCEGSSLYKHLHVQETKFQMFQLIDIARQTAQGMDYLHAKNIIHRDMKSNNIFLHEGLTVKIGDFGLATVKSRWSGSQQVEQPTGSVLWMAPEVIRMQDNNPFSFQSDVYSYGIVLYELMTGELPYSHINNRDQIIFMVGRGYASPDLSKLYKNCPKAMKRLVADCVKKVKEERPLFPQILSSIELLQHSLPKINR
T3 sequence (Q02750 whole entry S218A/S222A partner): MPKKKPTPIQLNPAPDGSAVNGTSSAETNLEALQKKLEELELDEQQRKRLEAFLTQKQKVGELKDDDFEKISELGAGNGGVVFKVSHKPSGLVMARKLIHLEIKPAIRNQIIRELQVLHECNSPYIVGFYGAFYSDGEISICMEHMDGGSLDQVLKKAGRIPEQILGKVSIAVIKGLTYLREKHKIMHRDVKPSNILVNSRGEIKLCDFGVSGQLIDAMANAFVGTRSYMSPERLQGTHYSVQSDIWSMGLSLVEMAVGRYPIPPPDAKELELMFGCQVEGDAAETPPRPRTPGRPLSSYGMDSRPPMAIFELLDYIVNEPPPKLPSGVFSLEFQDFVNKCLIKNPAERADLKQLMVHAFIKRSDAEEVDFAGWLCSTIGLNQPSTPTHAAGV

[6] = target: BRAF monomer complex (BRAF/MEK1 SASA) (Homo sapiens, UniProt P15056); assay: TR-FRET MEK phosphorylation assay, bell-shaped fit; assay type: biochemical; conditions: […] enzyme, […] ATP, […] MEK-B, […] DMSO; unreliable
Sequence of BRAF monomer complex (BRAF/MEK1 SASA) (P15056 445-723): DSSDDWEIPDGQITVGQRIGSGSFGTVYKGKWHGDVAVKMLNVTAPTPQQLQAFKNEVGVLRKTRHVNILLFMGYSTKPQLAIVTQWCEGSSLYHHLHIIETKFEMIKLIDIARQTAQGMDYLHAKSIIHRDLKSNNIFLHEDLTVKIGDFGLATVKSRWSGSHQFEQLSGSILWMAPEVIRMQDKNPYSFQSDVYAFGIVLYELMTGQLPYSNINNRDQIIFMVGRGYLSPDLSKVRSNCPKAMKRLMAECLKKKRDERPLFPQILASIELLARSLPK
Sequence of BRAF monomer complex (BRAF/MEK1 SASA) (Q02750 whole entry S218A/S222A partner): as the sequence (Q02750 whole entry S218A/S222A partner) above

[7] = target: T4, ARAF monomer complex (ARAF/MEK1 SASA) (Homo sapiens, UniProt P10398); assay: TR-FRET MEK phosphorylation assay, bell-shaped fit; assay type: biochemical
T4 sequence (P10398 282-579): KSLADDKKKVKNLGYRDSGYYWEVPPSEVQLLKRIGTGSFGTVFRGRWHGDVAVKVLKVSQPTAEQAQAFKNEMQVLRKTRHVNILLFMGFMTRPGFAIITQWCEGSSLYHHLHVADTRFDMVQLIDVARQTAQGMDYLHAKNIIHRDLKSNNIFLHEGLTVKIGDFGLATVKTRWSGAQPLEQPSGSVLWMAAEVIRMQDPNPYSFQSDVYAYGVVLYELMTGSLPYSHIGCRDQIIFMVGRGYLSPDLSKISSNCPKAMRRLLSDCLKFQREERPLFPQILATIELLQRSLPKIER
T4 sequence (Q02750 whole entry S218A/S222A partner): as the sequence (Q02750 whole entry S218A/S222A partner) above

[8] = target: T4, ARAF monomer complex (ARAF/MEK1 SASA); assay: TR-FRET MEK phosphorylation assay, bell-shaped fit; assay type: biochemical; remark: listed apart in the source
[9] = target: T3, CRAF monomer complex (CRAF/MEK1 SASA); assay: TR-FRET MEK phosphorylation assay, bell-shaped fit; assay type: biochemical; remark: listed apart in the source

T2 sequence (P04049 314-618 Y340D/Y341D): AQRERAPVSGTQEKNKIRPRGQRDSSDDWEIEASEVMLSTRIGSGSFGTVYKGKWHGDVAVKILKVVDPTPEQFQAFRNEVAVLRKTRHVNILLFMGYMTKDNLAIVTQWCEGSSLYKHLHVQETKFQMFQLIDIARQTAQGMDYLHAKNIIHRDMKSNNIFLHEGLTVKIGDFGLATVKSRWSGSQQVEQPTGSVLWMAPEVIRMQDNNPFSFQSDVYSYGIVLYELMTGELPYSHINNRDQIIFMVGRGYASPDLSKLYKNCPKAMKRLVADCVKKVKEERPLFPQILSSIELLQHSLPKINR
T2 sequence (Q02750 whole entry S218A/S222A partner): as the sequence (Q02750 whole entry S218A/S222A partner) above
T1 sequence (P10398 274-606 G300S/Y301D/Y302D): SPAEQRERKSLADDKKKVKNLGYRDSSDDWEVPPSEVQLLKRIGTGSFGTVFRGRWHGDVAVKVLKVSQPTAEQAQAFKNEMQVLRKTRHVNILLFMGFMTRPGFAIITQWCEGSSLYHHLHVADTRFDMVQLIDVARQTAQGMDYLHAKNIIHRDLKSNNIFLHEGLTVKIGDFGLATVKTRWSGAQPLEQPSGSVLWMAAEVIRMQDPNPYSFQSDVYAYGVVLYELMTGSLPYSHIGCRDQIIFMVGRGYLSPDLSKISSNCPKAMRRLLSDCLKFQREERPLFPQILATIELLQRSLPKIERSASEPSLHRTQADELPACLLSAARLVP
T1 sequence (Q02750 whole entry S218A/S222A partner): as the sequence (Q02750 whole entry S218A/S222A partner) above

Cc1ccc(NC(=O)c2cccc(C(C)(C)C#N)c2)cc1Nc1ccc2ncn(C)c(=O)c2c1 [AZ628]
IC50 [1]: 44.4 ± 17.6 nM | AC50 [2]: 1.72 ± 1.24 nM

Cc1ccc2c(Nc3cccc(Cl)c3F)nccc2c1NC(=O)c1csc2c(N)ncnc12 [Belvarafenib]
IC50 [3]: 34.6 ± 5.15 nM | AC50 [4]: 0.07 ± 0.06 nM

Cc1ccc(NC(=O)c2ccnc(C(F)(F)F)c2)cc1-c1cc(OCCO)nc(N2CCOCC2)c1 [Naporafenib]
IC50 [1]: 673 ± 488 nM | IC50 [3]: 79.2 ± 24.1 nM | AC50 [4]: 0.06 ± 0.04 nM | AC50 [2]: 13.3 ± 5.15 nM

CN(C)CCOc1ccc(-c2nc(-c3ccncc3)c(-c3ccc4c(c3)CC/C4=N\O)[nH]2)cc1 [SB590885]
IC50 [5]: > 10000 nM | IC50 [6]: 1915 ± 889 nM | IC50 [1]: > 10000 nM | AC50 [7]: 11.7 ± 14.3 nM | IC50 [8]: > 10000 nM | IC50 [3]: > 10000 nM | AC50 [9]: 242 ± 19.5 nM | AC50 [4]: 3.46 ± 1.49 nM | AC50 [2]: 7.62 ± 2.83 nM

— publication doi:10.64898/2025.12.15.694443v1 (biorxiv, 2025)
